Assay results published in patent US10537558B2 (Bantam Pharmaceutical, LLC, priority 2015, dated 2020).
pEC50: −log10 of the molar value.

The compounds below were run on BJAB cells (assay: BJAB cell proliferation (Cell Titer Glo)). Details: Homo sapiens, read-out: EC50.
Format: cell-based
Protocol: Cells were seeded in white Corning Costar 96-well assay plates at 2500 cells/well in 50 μL of medium. Serial dilutions of test compounds were made in cell culture medium/FBS+0.2% DMSO, and transferred to assay plates in a volume of 50 μL (DMSO at 0.1% final). Plates were maintained at 37° C. for approximately 72 hours. The effect of compounds on cell proliferation was evaluated using the Cell Titer Glo reagent (Promega), according to the manufacturer's instructions. Briefly, 100 μL of reagent was added per well, and after a 10 minute incubation luminescence values were determined on a plate reader (Tecan F200PRO). The percent of luminescence signal relative to untreated controls was calculated for each compound concentration, and EC50 values were determined from dose response data by non-linear regression analysis using Prism (GraphPad). The mTor inhibitor Torin1 (Liu, et al. (2010) J. Med. Chem. 53, 7146.) was used as a control. The data are summarized in the compound table provided above.
`COC(=O)c1c(Cc2ccccc2[N+](=O)[O-])c(C)nn1-c1nc(-c2ccc(Cl)c(Cl)c2)cs1` [Compound 1, methyl 1-(4-(3,4-dichlorophenyl)thiazol-2-yl)-3-methyl-4-(2-nitrobenzyl)-1H-pyrazole-5-carboxylate] was tested, and the pEC50 was less than 4.30. `Cc1nn(-c2nc(-c3ccc(Cl)c(Cl)c3)cs2)c(C(=O)O)c1Cc1ccccc1[N+](=O)[O-]` [Compound 2, 1-(4-(3,4-dichlorophenyl)thiazol-2-yl)-3-methyl-4-(2-nitrobenzyl)-1H-pyrazole-5-carboxylic acid] gave a pEC50 of less than 4.30. Work on `CCSc1sc(-n2nc(C)c(Cc3ccccc3[N+](=O)[O-])c2C(=O)OC)nc1-c1ccc(Cl)c(Cl)c1` [Compound 3, methyl 1-(4-(3,4-dichlorophenyl)-5-(ethylthio)thiazol-2-yl)-3-methyl-4-(2-nitrobenzyl)-1H-pyrazole-5-carboxylate] yielded a pEC50 of less than 4.10. `CCSc1sc(-n2nc(C)c(Cc3ccccc3[N+](=O)[O-])c2C(=O)O)nc1-c1ccc(Cl)c(Cl)c1` [Compound 4, 1-(4-(3,4-dichlorophenyl)-5-(ethylthio)thiazol-2-yl)-3-methyl-4-(2-nitrobenzyl)-1H-pyrazole-5-carboxylic Acid] showed a pEC50 of 4.00 to 4.30. `COC(=O)c1c(Cc2ccccc2[N+](=O)[O-])c(C)nn1-c1nc(-c2ccc(Cl)c(Cl)c2)c(SC(C)C)s1` [Compound 5, methyl 1-(4-(3,4-dichlorophenyl)-5-(isopropylthio)thiazol-2-yl)-3-methyl-4-(2-nitrobenzyl)-1H-pyrazole-5-carboxylate] gave a pEC50 of less than 4.10. `Cc1nn(-c2nc(-c3ccc(Cl)c(Cl)c3)c(SC(C)C)s2)c(C(=O)O)c1Cc1ccccc1[N+](=O)[O-]` [Compound 6, 1-(4-(3,4-dichlorophenyl)-5-(isopropylthio)thiazol-2-yl)-3-methyl-4-(2-nitrobenzyl)-1H-pyrazole-5-carboxylic acid] was tested, and the pEC50 was 4.30 to 4.60. `COC(=O)c1c(Cc2ccccc2NS(C)(=O)=O)c(C)nn1-c1nc(-c2ccc(Cl)c(Cl)c2)cs1` [Compound 7, methyl 1-(4-(3,4-dichlorophenyl)thiazol-2-yl)-3-methyl-4-(2-(methylsulfonamido)benzyl)-1H-pyrazole-5-carboxylate] showed a pEC50 of less than 4.10. Compound `Cc1nn(-c2nc(-c3ccc(Cl)c(Cl)c3)cs2)c(C(=O)O)c1Cc1ccccc1NS(C)(=O)=O` [Compound 8, 1-(4-(3,4-dichlorophenyl)thiazol-2-yl)-3-methyl-4-(2-(methylsulfonamido)benzyl)-1H-pyrazole-5-carboxylic acid] has a pEC50 of less than 4.10. With `CCCSc1sc(-n2nc(C)c(Cc3ccccc3[N+](=O)[O-])c2C(=O)OC)nc1-c1ccc(Cl)c(Cl)c1` [Compound 9, methyl 1-(4-(3,4-dichlorophenyl)-5-(propylthio)thiazol-2-yl)-3-methyl-4-(2-nitrobenzyl)-1H-pyrazole-5-carboxylate] the pEC50 was less than 4.10. `CCCSc1sc(-n2nc(C)c(Cc3ccccc3[N+](=O)[O-])c2C(=O)O)nc1-c1ccc(Cl)c(Cl)c1` [Compound 10, 1-(4-(3,4-dichlorophenyl)-5-(propylthio)thiazol-2-yl)-3-methyl-4-(2-nitrobenzyl)-1H-pyrazole-5-carboxylic acid] gave a pEC50 of 4.30 to 4.60. `CCCCSc1sc(-n2nc(C)c(Cc3ccccc3[N+](=O)[O-])c2C(=O)OC)nc1-c1ccc(Cl)c(Cl)c1` [Compound 11, methyl 1-(5-(butylthio)-4-(3,4-dichlorophenyl)thiazol-2-yl)-3-methyl-4-(2-nitrobenzyl)-1H-pyrazole-5-carboxylate] was tested, and the pEC50 was less than 4.10. In the case of `CCCCSc1sc(-n2nc(C)c(Cc3ccccc3[N+](=O)[O-])c2C(=O)O)nc1-c1ccc(Cl)c(Cl)c1` [Compound 12, 1-(5-(butylthio)-4-(3,4-dichlorophenyl)thiazol-2-yl)-3-methyl-4-(2-nitrobenzyl)-1H-pyrazole-5-carboxylic Acid], the pEC50 was less than 4.10. `CCCSc1sc(-n2nc(C)c(Cc3ccccc3NS(C)(=O)=O)c2C(=O)O)nc1-c1ccc(Cl)c(Cl)c1` [Compound 13, 1-(4-(3,4-dichlorophenyl)-5-(propylthio)thiazol-2-yl)-3-methyl-4-(2-(methylsulfonamido)benzyl)-1H-pyrazole-5-carboxylic Acid] showed a pEC50 of 4.30 to 4.60. With `CCCSc1sc(-n2nc(C)c(Cc3ccccc3NS(C)(=O)=O)c2C(=O)N2CCC(CN)CC2)nc1-c1ccc(Cl)c(Cl)c1` [Compound 14, N-(2-((5-(4-(aminomethyl)piperidine-1-carbonyl)-1-(4-(3,4-dichlorophenyl)-5-(propylthio)thiazol-2-yl)-3-methyl-1H-pyrazol-4-yl)methyl)phenyl)methanesulfonamide] the pEC50 was 4.60 to 5.00. With `Cc1nn(-c2nc(-c3ccc(Cl)c(Cl)c3)c(SC(C)C)s2)c(C(=O)O)c1Br` [Compound 15, 4-bromo-1-(4-(3,4-dichlorophenyl)-5-(isopropylthio)thiazol-2-yl)-3-methyl-1H-pyrazole-5-carboxylic Acid] the pEC50 was 4.60 to 5.00. Work on `Cc1cc(C(=O)O)n(-c2nc(-c3ccc(Cl)c(Cl)c3)c(SC(C)C)s2)n1` [Compound 16, 1-(4-(3,4-dichlorophenyl)-5-(isopropylthio)thiazol-2-yl)-3-methyl-1H-pyrazole-5-carboxylic Acid] yielded a pEC50 of 4.00 to 4.30. Work on `Cc1nn(-c2nc(-c3ccc(Cl)c(Cl)c3)c(SC(C)C)s2)c(C(=O)O)c1-c1ccc2nccn2c1` [Compound 17, 1-(4-(3,4-dichlorophenyl)-5-(isopropylthio)thiazol-2-yl)-4-(imidazo[1,2-a]pyridin-6-yl)-3-methyl-1H-pyrazole-5-carboxylic Acid] yielded a pEC50 of 4.60 to 5.00. `Cc1nn(-c2nc(-c3ccc(Cl)c(Cl)c3)c(SC(C)C)s2)c(C(=O)O)c1-c1ccccc1` [Compound 18, 1-(4-(3,4-dichlorophenyl)-5-(isopropylthio)thiazol-2-yl)-3-methyl-4-phenyl-1H-pyrazole-5-carboxylic Acid] gave a pEC50 of 5.30 to 6.00. For `Cc1nn(-c2nc(-c3ccc(Cl)c(Cl)c3)c(SC3CCCCC3)s2)c(C(=O)O)c1Cc1ccccc1[N+](=O)[O-]` [Compound 19, 1-(5-(cyclohexylthio)-4-(3,4-dichlorophenyl)thiazol-2-yl)-3-methyl-4-(2-nitrobenzyl)-1H-pyrazole-5-carboxylic Acid], the pEC50 was 4.60 to 5.00. For `Cc1nn(-c2nc(-c3ccc(Cl)c(Cl)c3)c(SC(C)C)s2)c(C(=O)O)c1-c1cc2ccccc2o1` [Compound 20, 4-(benzofuran-2-yl)-1-(4-(3,4-dichlorophenyl)-5-(isopropylthio)thiazol-2-yl)-3-methyl-1H-pyrazole-5-carboxylic Acid], the pEC50 was 5.00 to 5.30. `Cc1nn(-c2nc(-c3ccc(Cl)c(Cl)c3)c(SC(C)C)s2)c(C(=O)O)c1-c1ccnc(F)c1` [Compound 21, 1-(4-(3,4-dichlorophenyl)-5-(isopropylthio)thiazol-2-yl)-4-(2-fluoropyridin-4-yl)-3-methyl-1H-pyrazole-5-carboxylic acid] showed a pEC50 of 5.00 to 5.30. `Cc1cc(-c2c(C)nn(-c3nc(-c4ccc(Cl)c(Cl)c4)c(SC(C)C)s3)c2C(=O)O)cc(C)n1` [Compound 23, 1-(4-(3,4-dichlorophenyl)-5-(isopropylthio)thiazol-2-yl)-4-(2,6-dimethylpyridin-4-yl)-3-methyl-1H-pyrazole-5-carboxylic Acid] gave a pEC50 greater than 6.00. With `Cc1nn(-c2nc(-c3ccc(Cl)c(Cl)c3)c(SC(C)C)s2)c(C(=O)O)c1-c1cc(F)cc(F)c1` [Compound 24, 1-(4-(3,4-dichlorophenyl)-5-(isopropylthio)thiazol-2-yl)-4-(3,5-difluorophenyl)-3-methyl-1H-pyrazole-5-carboxylic Acid] the pEC50 was 5.30 to 6.00.
